Test results from patent US6274715A, “Tricyclic erythromycin derivatives” (priority 1997, dated 2001).
Converted amounts (≈) assume the structure as drawn.

Assays:
Type in all cases: cell-based
[1] = system: PSEUDOMONAS AERUGINOSA K799/WT; assay: In vitro antibacterial activity, MIC, BHI agar dilution; details: P. aeruginosa K799/WT, unit assumed
[2] = system: ESCHERICHIA COLI DC-2; assay: as above; details: E. coli DC-2, unit assumed
[3] = system: STREPTOCOCCUS PYOGENES PIU 2548; assay: as above; details: S. pyogenes PIU 2548, unit assumed
[4] = system: PSEUDOMONAS AERUGINOSA 5007; assay: as above; details: P. aeruginosa 5007, unit assumed
[5] = system: STAPHYLOCOCCUS AUREUS 1775; assay: as above; details: S. aureus 1775, unit assumed
[6] = system: PSEUDOMONAS AERUGINOSA DPHD-5263; assay: as above; details: P. aeruginosa DPHD-5263, unit assumed
[7] = system: STREPTOCOCCUS BOVIS A-5169; assay: as above; details: S. bovis A-5169, unit assumed
[8] = system: PROVIDENCIA STUARTII CMX 640; details: P. stuartii CMX 640; BHI agar; unit assumed
[9] = system: ACINETOBACTER CALCOACETICUS CMX 669; assay: In vitro antibacterial activity, MIC, BHI agar dilution; details: A. calcoaceticus CMX 669, unit assumed
[10] = system: ESCHERICHIA COLI JUHL; details: E. coli JUHL; BHI agar; unit assumed
[11] = system: PSEUDOMONAS AERUGINOSA BMH10; assay: In vitro antibacterial activity, MIC, BHI agar dilution; details: P. aeruginosa BMH10, unit assumed
[12] = system: STREPTOCOCCUS PYOGENES EES61; assay: as above; details: S. pyogenes EES61, unit assumed
[13] = system: H. Influenza Dill AMP R; assay: In vitro antibacterial activity against H. Influenza Dill AMP R, MIC; details: separate assay, unit assumed
Summary of the method: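 Agar dilution in Brain Heart Infusion agar, twelve successive compound dilutions, inoculated by Steers replicator with 1:100 (1:10 for slow growers) culture dilutions. Incubation 35-37° C. for 20 to 24 hours; MIC is lowest concentration giving no growth, slight haze or sparse colonies versus drug-free control.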

[14] = system: STREPTOCOCCUS PYOGENES 930; assay: In vitro antibacterial activity, MIC, BHI agar dilution; details: S. pyogenes 930, unit assumed
[15] = system: STAPHYLOCOCCUS AUREUS ATCC 6538P; assay: as above; details: S. aureus ATCC 6538P, 35-37° C., 20 to 24 hours, unit assumed
[16] = system: KLEBSIELLA PNEUMONIAE ATCC 8045; assay: as above; details: K. pneumoniae ATCC 8045, unit assumed
[17] = system: PSEUDOMONAS AERUGINOSA K799/61; assay: as above; details: P. aeruginosa K799/61, unit assumed
[18] = system: ESCHERICHIA COLI H560; assay: as above; details: E. coli H560, unit assumed
[19] = system: ENTEROBACTER AEROGENES ATCC 13048; assay: as above; details: E. aerogenes ATCC 13048, unit assumed
[20] = system: STAPHYLOCOCCUS AUREUS NCTC10649M; assay: as above; details: S. aureus NCTC10649M, unit assumed
[21] = system: PSEUDOMONAS AERUGINOSA DPHD-2862; assay: as above; details: P. aeruginosa DPHD-2862, unit assumed
[22] = system: STAPHYLOCOCCUS AUREUS A-5278; assay: as above; details: S. aureus A-5278, unit assumed
[23] = system: STAPHYLOCOCCUS AUREUS CMX 553; assay: as above; details: S. aureus CMX 553, unit assumed
[24] = system: ESCHERICHIA COLI KNK 437; details: E. coli KNK 437; BHI agar; unit assumed
[25] = system: PSEUDOMONAS CEPACIA 296I; assay: In vitro antibacterial activity, MIC, BHI agar dilution; details: P. cepacia 296I, unit assumed
[26] = system: MYCOBACTERIUM SMEGMATIS ATCC 114; assay: as above; details: M. smegmatis ATCC 114, unit assumed
[27] = system: ESCHERICHIA COLI SS; assay: as above; details: E. coli SS, unit assumed
[28] = system: STAPHYLOCOCCUS AUREUS CMX 642A; assay: as above; details: S. aureus CMX 642A, unit assumed
[29] = system: M[…] ATCC 4698; assay: as above; details: M. luteus ATCC 4698, unit assumed
Summary of the method: (§1)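 MIC was read visually as the lowest drug concentration showing no growth, a slight haze or sparsely isolated colonies relative to a compound-free BHI plate. Plates held serial aqueous dilutions in BHI agar, were spot-inoculated with 1:100 (or 1:10) culture dilutions and incubated 20 to 24 hours at 35-37° C.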

[30] = system: M[…] ATCC 9341; assay: as above; details: M. luteus ATCC 9341, unit assumed
Summary of the method: as §1

[31] = system: STR[…] 508; assay: as above; details: S. agalactiae CMX 508, unit assumed
Summary of the method: as §1

[32] = system: EN[…] ATCC 8043; assay: as above; details: E. faecium ATCC 8043, unit assumed
Summary of the method: as §1

[33] = system: STAPHYLOCOCCUS EPIDERMIDIS 3519; details: S. epidermidis 3519; BHI agar; unit assumed
[34] = system: CANDIDA ALBICANS CCH 442; assay: In vitro antibacterial activity, MIC, BHI agar dilution; details: C. albicans CCH 442, unit assumed
[35] = system: STAPHYLOCOCCUS AUREUS A5177; assay: as above; details: S. aureus A5177, unit assumed

| SMILES | MIC [1] | MIC [2] | MIC [3] | MIC [4] | MIC [5] | MIC [6] | MIC [7] | MIC [8] | MIC [9] | MIC [10] | MIC [11] | MIC [12] | MIC [13] | MIC [14] | MIC [15] | MIC [16] | MIC [17] | MIC [18] | MIC [19] | MIC [20] | other results |
| --- | --- | --- | --- | --- | --- | --- | --- | --- | --- | --- | --- | --- | --- | --- | --- | --- | --- | --- | --- | --- | --- |
| CC[C@H]1OC(=O)[C@H](C)C(=O)[C@H](C)[C@@H](O[C@@H]2O[C@H](C)C[C@H](N(C)C)[C@H]2O)[C@](C)(OC)C[C@@H](C)C2=N[C@H](CCOCc3ccccc3)CN3C(=O)O[C@@]1(C)[C@H]3[C@H]2C [Example 92] | > 100 µg/mL | > 100 µg/mL | 0.39 µg/mL (≈ 0.505 µM) | > 100 µg/mL | > 100 µg/mL | > 100 µg/mL | 0.05 µg/mL (≈ 0.0648 µM) | > 100 µg/mL | > 100 µg/mL | > 100 µg/mL | > 100 µg/mL | 0.05 µg/mL (≈ 0.0648 µM) | 32 µg/mL (≈ 41.5 µM) | 100 µg/mL (≈ 130 µM) | 0.39 µg/mL (≈ 0.505 µM) | > 100 µg/mL | 6.2 µg/mL (≈ 8.03 µM) | > 100 µg/mL | > 100 µg/mL | 0.39 µg/mL (≈ 0.505 µM) | MIC [21]: > 100 µg/mL; MIC [22]: > 100 µg/mL; MIC [23]: 0.39 µg/mL (≈ 0.505 µM); MIC [24]: > 100 µg/mL; MIC [25]: > 100 µg/mL; MIC [26]: 1.56 µg/mL (≈ 2.02 µM); MIC [27]: 1.56 µg/mL (≈ 2.02 µM); MIC [28]: 0.39 µg/mL (≈ 0.505 µM); MIC [29]: 0.39 µg/mL (≈ 0.505 µM); MIC [30]: 0.05 µg/mL (≈ 0.0648 µM); MIC [31]: 0.05 µg/mL (≈ 0.0648 µM); MIC [32]: 0.1 µg/mL (≈ 0.13 µM); MIC [33]: 0.39 µg/mL (≈ 0.505 µM); MIC [34]: > 100 µg/mL; MIC [35]: 0.2 µg/mL (≈ 0.259 µM) |
| CCC1OC(=O)C(C)C(=O)C(C)C(OC2OC(C)CC(N(C)C)C2O)C(C)(OC)CC(C)C2=NC(COCSC)CN3C(=O)OC1(C)C3C2C (stereo not drawn) [Example 99] | > 100 µg/mL | > 100 µg/mL | 0.39 µg/mL (≈ 0.536 µM) | > 100 µg/mL | > 100 µg/mL | > 100 µg/mL | 0.05 µg/mL (≈ 0.0687 µM) | > 100 µg/mL | 100 µg/mL (≈ 137 µM) | > 100 µg/mL | > 100 µg/mL | 0.05 µg/mL (≈ 0.0687 µM) | 32 µg/mL (≈ 44 µM) | > 100 µg/mL | 0.39 µg/mL (≈ 0.536 µM) | > 100 µg/mL | 6.2 µg/mL (≈ 8.52 µM) | > 100 µg/mL | > 100 µg/mL | 0.39 µg/mL (≈ 0.536 µM) | MIC [21]: > 100 µg/mL; MIC [22]: > 100 µg/mL; MIC [23]: 0.39 µg/mL (≈ 0.536 µM); MIC [24]: > 100 µg/mL; MIC [25]: > 100 µg/mL; MIC [26]: 3.1 µg/mL (≈ 4.26 µM); MIC [27]: 0.78 µg/mL (≈ 1.07 µM); MIC [28]: 0.39 µg/mL (≈ 0.536 µM); MIC [29]: 0.39 µg/mL (≈ 0.536 µM); MIC [30]: 0.1 µg/mL (≈ 0.137 µM); MIC [31]: 0.05 µg/mL (≈ 0.0687 µM); MIC [32]: 0.1 µg/mL (≈ 0.137 µM); MIC [33]: 0.39 µg/mL (≈ 0.536 µM); MIC [34]: > 100 µg/mL; MIC [35]: 0.39 µg/mL (≈ 0.536 µM) |
| CC[C@H]1OC(=O)[C@H](C)C(=O)[C@H](C)[C@@H](O[C@@H]2O[C@H](C)C[C@H](N(C)C)[C@H]2O)[C@](C)(OC)C[C@@H](C)C2=NC3CN(S(=O)(=O)Cc4ccccc4[N+](=O)[O-])CC3N3C(=O)O[C@@]1(C)[C@H]3[C@H]2C (stereo partly drawn) [Example 123] | > 100 µg/mL | > 100 µg/mL | 3.1 µg/mL (≈ 3.53 µM) | > 100 µg/mL | > 100 µg/mL | > 100 µg/mL | 0.1 µg/mL (≈ 0.114 µM) | > 100 µg/mL | > 100 µg/mL | > 100 µg/mL | > 100 µg/mL | 0.1 µg/mL (≈ 0.114 µM) | 128 µg/mL (≈ 146 µM) | > 100 µg/mL | 1.56 µg/mL (≈ 1.78 µM) | > 100 µg/mL | 25 µg/mL (≈ 28.5 µM) | > 100 µg/mL | > 100 µg/mL | 3.1 µg/mL (≈ 3.53 µM) | MIC [21]: > 100 µg/mL; MIC [22]: > 100 µg/mL; MIC [23]: 3.1 µg/mL (≈ 3.53 µM); MIC [24]: > 100 µg/mL; MIC [25]: > 100 µg/mL; MIC [26]: 12.5 µg/mL (≈ 14.2 µM); MIC [27]: 6.2 µg/mL (≈ 7.06 µM); MIC [28]: 3.1 µg/mL (≈ 3.53 µM); MIC [29]: 1.56 µg/mL (≈ 1.78 µM); MIC [30]: 0.39 µg/mL (≈ 0.444 µM); MIC [31]: 0.1 µg/mL (≈ 0.114 µM); MIC [32]: 0.39 µg/mL (≈ 0.444 µM); MIC [33]: 3.1 µg/mL (≈ 3.53 µM); MIC [34]: > 100 µg/mL; MIC [35]: 1.56 µg/mL (≈ 1.78 µM) |
